8 compounds from ChEMBL document CHEMBL3217635, “Pharmacological properties of indolone-N-oxides controlled by a bioreductive transformation in red blood cells?” (Medchemcomm, 2011) can be followed below.

Data set [1] in a line: Metabolic stability in human RBC assessed as retention time at 7.8 mg/ml by LC-MS analysis. The following applies: erythrocyte. The format is ADME, cell-based.
Data set [2] in a line: Metabolic stability in human RBC assessed as retention time of corresponding dihydroanalogue at 7.8 mg/ml by LC-MS analysis. It counts as ADME, cell-based. The following applies: erythrocyte.
A further data set deals with Plasmodium falciparum. Nature of the data set: Antiplasmodial activity against Plasmodium falciparum FcB1. It counts as functional, organism-based.
A short description of data set [3]: Cytotoxicity against human MCF7 cells. It counts as cell-based.
Data set [4] in a line: Selectivity index, ratio of CC50 for human MCF7 cells to IC50 for Plasmodium falciparum FcB1. It counts as functional.
Data set [5] is described as follows: Half life in CD-1 mouse liver microsomes by LC-FL analysis. It counts as ADME. Background: Liver microsomes are vesicles of endoplasmic reticulum, rich in cytochrome P450 enzymes.
Data set [6] in a line: Half life in mouse liver microsomes. It counts as ADME.
Data set [7] in a line: Drug metabolism in CD-1 mouse liver microsomes assessed as 1-HH metabolite formation after 10 mins by LC-FL analysis. The format is ADME.
A short description of data set [8]: Cellular uptake in human RBC assessed as intracellular level at 1 mg/ml measured immediately. It counts as ADME, cell-based. Particulars: erythrocyte; call rule not given here.
The nature of data set [9]: Drug metabolism in human RBC assessed as 1-HH formation at 5 mM at 4 degC after 6 hrs by HPLC-FL analysis. It counts as ADME, cell-based. Particulars: erythrocyte, 5000 µM.
Data set [10] can be described thus: Metabolic stability in human RBC assessed as increase in extracellular dihydroanalogue metabolite level at 1 mg/ml. The format is ADME, cell-based. The following applies: erythrocyte, TDE = time-dependent effect.
Data set [11] in a line: Drug metabolism in human RBC assessed as 1-HH formation at 5 mM at 37 degC after 6 hrs by HPLC-FL analysis. It counts as ADME, cell-based. Particulars: erythrocyte, 5000 µM.
A short description of data set [12]: Drug metabolism in human heat-denaturated RBC. It counts as ADME, cell-based. The following applies: erythrocyte.
A short description of data set [13]: Drug metabolism in human NEM-treated RBC assessed as 1-HH formation after 4 hrs by HPLC-FL analysis. The format is ADME, cell-based. The following applies: erythrocyte.
The nature of data set [14]: Drug metabolism in CDNB-treated human RBC assessed as 1-HH formation after 4 hrs by HPLC-FL analysis. The format is ADME, cell-based. Particulars: erythrocyte.
Data set [15] in a line: Drug metabolism in human RBC assessed as 1-HH formation after 4 hrs by HPLC-FL analysis. It counts as ADME, cell-based. The following applies: erythrocyte.
The nature of data set [16]: Drug metabolism in human RBC infected with late stage Plasmodium falciparum assessed as 1-HH formation after 3 hrs. It counts as ADME, cell-based. The following applies: erythrocyte.
Data set [17] in a line: Drug metabolism in healthy human RBC assessed as 1-HH formation after 3 hrs. The format is ADME, cell-based. Particulars: erythrocyte.
A short description of data set [18]: Drug metabolism in human beta-thalassemic RBC assessed as 1-HH formation after 3 hrs. The format is ADME, cell-based. The following applies: erythrocyte.
Data set [19] in a line: Drug metabolism in human phenylhydrazine-treated RBC assessed as 1-HH formation after 3 hrs. It counts as ADME, cell-based. Particulars: erythrocyte.
Data set [20] is described as follows: Drug metabolism assessed as 1-HH metabolite formation in presence of haemoglobin. The format is physicochemical.
A short description of data set [21]: Drug metabolism assessed as 1-HH metabolite formation in presence of human haemoglobin. It counts as ADME.
The nature of data set [22]: Drug metabolism assessed as 1-HH metabolite formation in presence of haemin. The format is physicochemical.
The nature of data set [23]: Drug metabolism assessed as 1-HH metabolite formation in presence of haematin. It counts as physicochemical.
The nature of data set [24]: Drug metabolism assessed as 1-HH metabolite formation in presence of ferrous ion. The format is physicochemical.
Data set [25] can be described thus: Drug metabolism in cytoplasm of human RBC assessed as 1-HH metabolite formation after 3 hrs. The format is ADME. Particulars: erythrocytes.
A short description of data set [26]: Drug metabolism assessed as 1-HH metabolite formation after 3 hrs in presence of human haemoglobin. The format is physicochemical.
The nature of data set [27]: Drug metabolism assessed as 1-HH metabolite formation after 3 hrs in presence of ghost fraction. The format is physicochemical.

Where only a bound is given, the exact number is not on record here.

Regarding `COc1ccc2cc(C3=[N+]([O-])c4ccccc4C3=O)ccc2c1`, the Retention_time turned out to be 17.4 min in data set [1] and 9.9 min in data set [2].

As for `O=C1c2cc3c(cc2NC1(O)c1ccc(Cl)cc1)OCO3` (stereo not drawn), the IC50 in the data set on Plasmodium falciparum is 1.03 µM. The CC50 in [3] was 68 µM. In addition, the “Ratio CC50/IC50” value in data set [4] worked out at 66. The half-life in data set [5] is 10 min.

Regarding `COc1ccc2c(c1)C(=O)C(c1ccc(Oc3ccccc3)cc1)=[N+]2[O-]`, the Retention_time in data set [1] worked out at 23.5 min; in data set [2], 11.3 min.

`O=C1C(c2ccc(Cl)c(Cl)c2)=[N+]([O-])c2ccccc21`: the Retention_time in [1] was determined as 20.9 min; in data set [2], 11.2 min.

`COc1ccc2c(c1)C(=O)C(c1ccc(N(C)C)cc1)=[N+]2[O-]`: the values for the Retention_time in [1] and in [2] were 14 min and 8.2 min, respectively. This compound registered an IC50 in the data set on Plasmodium falciparum of 0.003 µM. The compound further had a half-life in [6] of 6 min.

With `COc1ccc2c(c1)C(=O)C(c1ccc(Cl)c(C)c1)=[N+]2[O-]`, the Retention_time in data set [1] stood at 22.6 min; in [2], 10.4 min.

Regarding `O=C1C(c2ccc(Cl)cc2)=[N+]([O-])c2cc3c(cc21)OCO3`, the Retention_time in data set [1] was 18.2 min; in data set [2] it was 9.6 min. Moreover, the Stability result in [7], in data set [12], in data set [20], in data set [21], in data set [22] and in data set [23] was “Stable” throughout. In addition, the Stability entry in [24], in data set [26] and in [27] was “Stable” in each case. Also, the Drug uptake entry in [8] was “Active”. Further, the Drug metabolism entry is recorded as “Active” in [9]; “tde” in [10]; “Active” in data set [11]; “Not Active” in data set [13]; “Not Active” in [14]; “Active” in data set [15]. Also, the Drug metabolism result in data set [16], in data set [17], in data set [18], in [19] and in data set [25] was “Active” throughout. Further, the half-maximal cytotoxic concentration (CC50) in data set [3] came to 23 µM. Besides, the “Ratio CC50/IC50” value in data set [4] came to 264. Also, the half-life in data set [5] was < 1 min.

Consider `CCN(CC)CCCC(C)Nc1ccnc2cc(Cl)ccc12` (stereo not drawn) [CHLOROQUINE], for which, in data set [3], half-maximal cytotoxicity (CC50) was put at 19 µM.

As usually defined, the IC50 is the concentration that gives 50% inhibition. Read a low IC50 as higher potency. As usually defined, the CC50 is the concentration at which the toxic effect on the cells reaches its halfway point. A low value points to harm at low concentration. The term half-life denotes how long it takes for the measured level to halve.
